In ChEMBL document CHEMBL5321227, “Lysosome-targeting phenalenones as efficient type I/II photosensitizers for anticancer photodynamic therapy” (Eur J Med Chem, 2023):
Activity calls are given as the source filed them. No cut-off for these calls is given here.

Assays:
[1] = Toxicity in BALB/c mouse xenografted with mouse 4T1 cells assessed as histopathological lesion in tumor at 5 mg/kg,IT(Intratumoral) for 14 days by Hematoxylin and Eosin staining based microscopy; format: organism-based; settings: in vivo, other, 336 h, time 14 day
[2] = Drug uptake BALB/c mouse xenografted with mouse 4T1 cells assessed as increase in fluorescence signal in tumor at 5 mg/kg,IT(Intratumoral) and measured for 1 to 6 hrs by fluorescence imaging analysis; format: ADME, organism-based, Neoplasm; settings: in vivo, other, time 1-6 hrs
4T1 [3] = experiment: Antitumor activity against mouse 4T1 cells xenografted in BALB/c mouse assessed as tumor growth inhibition at 5 mg/kg,IT(Intratumoral) for 14 days followed by photoirradiation with 500 to 700nm light (0.5 W) for 6 hrs; format: functional, organism-based; settings: time 14.25 day
[4] = Toxicity in BALB/c mouse xenografted with mouse 4T1 cells assessed as body weight change at 5 mg/kg,IT(Intratumoral) for 14 days; format: organism-based; settings: in vivo, other, 336 h, time 14 day
[5] = Drug uptake BALB/c mouse xenografted with mouse 4T1 cells assessed as increase in fluorescence signal in tumor at 5 mg/kg,IT(Intratumoral) and measured for 6 to 24 hrs by fluorescence imaging analysis; format: ADME, organism-based, Neoplasm; settings: in vivo, other, time 6-24 hrs
[6] = Toxicity in BALB/c mouse xenografted with mouse 4T1 cells assessed as histopathological lesion in liver at 5 mg/kg,IT(Intratumoral) for 14 days by Hematoxylin and Eosin staining based microscopy; format: organism-based; settings: in vivo, other, 336 h, time 14 day
MDA-MB-231 [7] = experiment: Anticancer activity against human MDA-MB-231 cells assessed as number of dead cells at 2.5 uM preincubated for 12 hrs followed by photoirradiation with 500 to 700nm and 12 J/cm^2 LED light for 10 mins by calcein-AM and propidium iodide staining based flow cytometry; format: functional, cell-based; settings: time 12.2 hrs
[8] = Drug uptake in heart of BALB/c mouse xenografted with mouse 4T1 cells at 5 mg/kg,IT(Intratumoral) and measured after 6 hrs by fluorescence imaging analysis; format: ADME, organism-based; settings: in vivo, other
[9] = Stability of compound in gamma-glutamyl transpeptidase at 10 uM incubated for 30 mins by fluorescence assay; format: physicochemical; settings: 0.5 h
4T1 [10] = experiment: Anticancer activity against mouse 4T1 cells assessed as reduction in cell viability preincubated for 2 hrs followed by photoirradiation with 500 to 700nm and 12 J/cm^2 LED light for 24 hrs by CCK-8 assay; format: functional, cell-based; settings: 4T1, light or radiation study
MDA-MB-231 [11] = experiment: Anticancer activity against human MDA-MB-231 cells assessed as reduction in cell viability at 0.01 to 10 uM incubated for 24 hrs by CCK-8 assay; format: functional, cell-based; settings: dose 0.01-10 µM
[12] = Toxicity in BALB/c mouse xenografted with mouse 4T1 cells assessed as histopathological lesion in spleen at 5 mg/kg,IT(Intratumoral) for 14 days by Hematoxylin and Eosin staining based microscopy; format: organism-based; settings: in vivo, other, 336 h, time 14 day
[13] = Toxicity in BALB/c mouse xenografted with mouse 4T1 cells assessed as tissue destruction with large spaces in lung at 5 mg/kg,IT(Intratumoral) for 14 days followed by photoirradiation with 500 to 700nm light (0.5 W) for 6 hrs by Hematoxylin and Eosin staining based microscopy; format: organism-based; settings: in vivo, other, 342 h, time 14.25 day
4T1 [14] = experiment: Anticancer activity against mouse 4T1 cells assessed as reduction in cell viability at 0.01 to 10 uM incubated for 24 hrs by CCK-8 assay; format: functional, cell-based; settings: dose 0.01-10 µM
[15] = Induction of singlet oxygen production in ethanol assessed as singlet oxygen quantum yield at 410nm under photoirradiation with 550nm and 10 mW/cm^2 LED light for 10 to 80 secs by DPBF based microplate reader analysis; format: functional; settings: time 10-80 sec
[16] = Drug uptake in spleen of BALB/c mouse xenografted with mouse 4T1 cells at 5 mg/kg,IT(Intratumoral) and measured after 6 hrs by fluorescence imaging analysis; format: ADME, organism-based; settings: in vivo, other
MDA-MB-231 [17] = experiment: Anticancer activity against human MDA-MB-231 cells assessed as reduction in cell viability preincubated for 2 hrs followed by photoirradiation with 500 to 700nm and 12 J/cm^2 LED light for 24 hrs by CCK-8 assay; format: functional, cell-based; settings: MDA-MB-231, light or radiation study
[18] = Drug uptake in liver of BALB/c mouse xenografted with mouse 4T1 cells at 5 mg/kg,IT(Intratumoral) and measured after 6 hrs by fluorescence imaging analysis; format: ADME, organism-based; settings: in vivo, other
[19] = Stability of compound in H2O2 at 10 uM incubated for 30 mins by fluorescence assay; format: physicochemical; settings: 0.5 h
[20] = Drug uptake in tumor BALB/c mouse xenografted with mouse 4T1 cells at 5 mg/kg,IT(Intratumoral) and measured after 6 hrs by fluorescence imaging analysis; format: ADME, organism-based, Neoplasm; settings: in vivo, other
[21] = Toxicity in BALB/c mouse xenografted with mouse 4T1 cells assessed as tissue destruction with large spaces in tumor at 5 mg/kg,IT(Intratumoral) for 14 days followed by photoirradiation with 500 to 700nm light (0.5 W) for 6 hrs by Hematoxylin and Eosin staining based microscopy; format: organism-based; settings: in vivo, other, 342 h, time 14.25 day
[22] = Stability of compound in various pH; format: physicochemical
[23] = Drug metabolism in carboxylesterase (unknown origin) assessed as formation of active photosensitizer 6-amino-5-iodo-1H-phenalen-1-one at 10 uM under by LC-MS/MS analysis assay; format: ADME; settings: human
[24] = Stability of compound in GSH at 10 uM incubated for 30 mins by fluorescence assay; format: physicochemical; settings: 0.5 h
[25] = Toxicity in BALB/c mouse xenografted with mouse 4T1 cells assessed as tissue destruction with large spaces in liver at 5 mg/kg,IT(Intratumoral) for 14 days followed by photoirradiation with 500 to 700nm light (0.5 W) for 6 hrs by Hematoxylin and Eosin staining based microscopy; format: organism-based; settings: in vivo, other, 342 h, time 14.25 day
[26] = Drug metabolism in human MDA-MB-231 cells assessed as increase in carboxylesterase mediated SR release at 5 uM incubated for 2 hrs by confocal laser scanning microscopy; format: ADME, cell-based; settings: mda-mb-231, 2 h
[27] = Toxicity in BALB/c mouse xenografted with mouse 4T1 cells assessed as tissue destruction with large spaces in kidney at 5 mg/kg,IT(Intratumoral) for 14 days followed by photoirradiation with 500 to 700nm light (0.5 W) for 6 hrs by Hematoxylin and Eosin staining based microscopy; format: organism-based; settings: in vivo, other, 342 h, time 14.25 day
4T1 [28] = experiment: Anticancer activity against mouse 4T1 cells assessed as fold increase in gamma-H2A.X protein expression at 1 uM preincubated for 2 hrs followed by photoirradiation with 500 to 700nm and 12 J/cm^2 LED light and measured after 24 hrs by Western blot analysis relative to control; format: functional; settings: time 26 hrs
[29] = Toxicity in BALB/c mouse xenografted with mouse 4T1 cells assessed as body weight change at 5 mg/kg,IT(Intratumoral) for 14 days followed by photoirradiation with 500 to 700nm light (0.5 W) for 6 hrs; format: organism-based; settings: in vivo, other, 342 h, time 14.25 day
[30] = Toxicity in BALB/c mouse xenografted with mouse 4T1 cells assessed as histopathological lesion in kidney at 5 mg/kg,IT(Intratumoral) for 14 days by Hematoxylin and Eosin staining based microscopy; format: organism-based; settings: in vivo, other, 336 h, time 14 day
MDA-MB-231 [31] = experiment: Anticancer activity against human MDA-MB-231 cells assessed as number of dead cells at 2.5 uM incubated for 12 hrs by calcein-AM and propidium iodide staining based flow cytometry; format: functional, cell-based
4T1 [32] = experiment: Anticancer activity against mouse 4T1 cells assessed as fold increase in cleaved caspase-3 protein expression at 1 uM preincubated for 2 hrs followed by photoirradiation with 500 to 700nm and 12 J/cm^2 LED light and measured after 24 hrs by Western blot analysis relative to control; format: functional; settings: time 26 hrs

For `O=C(CCl)Nc1c(I)cc2c3c(cccc13)C(=O)C=C2`, the Activity [1] was “Non-Toxic”, the Drug uptake [2] was “Active” and the Activity (4T1 [3]) was “Active”. For the same molecule, the Activity [4] was “Toxic”, the Drug uptake [5] was “Not Active” and the Activity [6] was “Non-Toxic”. The Activity (MDA-MB-231 [7]) was “Active”, the Drug uptake [8] was “Not Active” and the Stability [9] was “Stable”. For the same molecule, the IC50 (4T1 [10]) was 1310 nM, the Activity (MDA-MB-231 [11]) was “Active” and the Activity [12] was “Non-Toxic”. The Activity [13] was “Toxic”, the Activity (4T1 [14]) was “Active” and the Activity [15] was 0.09. The Drug uptake [16] was “Not Active”, the IC50 (MDA-MB-231 [17]) was 1590 nM and the Drug uptake [18] was “Active”. The Stability [19] was “Stable”, the Drug uptake [20] was “Active” and the Activity [21] was “Toxic”. For the same molecule, the Stability [22] was “Stable”, the Drug metabolism [23] was “Metabolite_Detected” and the Stability [24] was “Stable”. The Activity [25] was “Toxic”, the Drug metabolism [26] was “Metabolite_Detected” and the Activity [27] was “Toxic”. For the same molecule, the “fold change (FC)” value (4T1 [28]) was 2.12, the Activity [29] was “Toxic” and the Activity [30] was “Non-Toxic”. The Activity (MDA-MB-231 [31]) was “inactive” and the “fold change (FC)” value (4T1 [32]) was 3.45.
